Reference: the NIST ThermoML archive (doi:10.1016/j.jct.2014.01.025)
± gives the expanded uncertainty stated by the source.

Settings: Liquid; for Critical pressure: Direct measurement; for Critical temperature: Visual observation in an unstirred cell

CCO [ethanol] showed a Critical pressure of 6135 ± 31 kPa and a Critical temperature of 514.2 ± 2.4 K.

With CCCCCCC [heptane] the Critical pressure was 2761 ± 31 kPa and the Critical temperature was 540 ± 2.4 K.

Compound CO [methanol] has a Critical pressure of 8128 ± 31 kPa and a Critical temperature of 512.3 ± 2.4 K.

CCCO [propan-1-ol] gave a Critical pressure of 5172 ± 31 kPa and a Critical temperature of 537 ± 2.4 K.
